Key:
α4β2* nAChRs = α4β2* nAChRs (Rattus norvegicus, UniProt P09483+P12390); conditions: 100 nM drug; rat brain slices
Aβ plaques = assay: [3H]PIB competition autoradiography in postmortem human AD frontal cortex slices; format: binding; conditions: for displacement of [3H]PIB (words, discussion): concentration not restated
amyloid β = conditions: ref Salloway et al. 2014, Doody et al. 2014, Siemers et al. 2016, cited from earlier work
[1] = 10 μM drug, control GM/WM approx. 3

Chain of α4β2* nAChRs (P09483 31-630): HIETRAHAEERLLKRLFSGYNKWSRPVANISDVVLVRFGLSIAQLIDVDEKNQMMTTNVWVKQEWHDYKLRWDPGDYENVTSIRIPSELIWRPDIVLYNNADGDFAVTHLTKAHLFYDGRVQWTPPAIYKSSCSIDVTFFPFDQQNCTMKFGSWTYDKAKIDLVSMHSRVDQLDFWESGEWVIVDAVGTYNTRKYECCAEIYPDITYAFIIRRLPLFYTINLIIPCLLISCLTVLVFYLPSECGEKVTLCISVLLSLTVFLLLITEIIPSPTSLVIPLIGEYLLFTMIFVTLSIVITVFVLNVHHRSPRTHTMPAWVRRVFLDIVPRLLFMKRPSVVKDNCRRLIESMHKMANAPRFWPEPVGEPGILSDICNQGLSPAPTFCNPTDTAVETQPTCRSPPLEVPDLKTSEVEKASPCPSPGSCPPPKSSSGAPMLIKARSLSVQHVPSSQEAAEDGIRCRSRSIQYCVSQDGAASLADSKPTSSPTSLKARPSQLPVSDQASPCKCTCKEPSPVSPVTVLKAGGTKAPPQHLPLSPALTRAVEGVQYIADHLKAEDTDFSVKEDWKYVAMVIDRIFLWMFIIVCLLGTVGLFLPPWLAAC
Chain of α4β2* nAChRs (P12390 25-500): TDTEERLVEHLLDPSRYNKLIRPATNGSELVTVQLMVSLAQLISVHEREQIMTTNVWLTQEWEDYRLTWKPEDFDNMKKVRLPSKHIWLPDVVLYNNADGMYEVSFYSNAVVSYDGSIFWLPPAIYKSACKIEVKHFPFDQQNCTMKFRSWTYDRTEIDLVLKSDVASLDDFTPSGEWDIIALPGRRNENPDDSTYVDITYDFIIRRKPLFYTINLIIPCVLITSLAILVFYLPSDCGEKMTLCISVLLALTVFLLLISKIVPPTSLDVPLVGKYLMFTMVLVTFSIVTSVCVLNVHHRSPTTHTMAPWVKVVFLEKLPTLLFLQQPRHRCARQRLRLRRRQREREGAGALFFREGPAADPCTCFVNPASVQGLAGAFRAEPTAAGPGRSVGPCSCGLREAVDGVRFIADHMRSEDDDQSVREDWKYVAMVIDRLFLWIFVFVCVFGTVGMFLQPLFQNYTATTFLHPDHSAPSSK

Row | Compound | effect on [3H]PIB binding (Aβ plaques; 1 μM drug) | GM/WM ratio of [3H]PIB binding (Aβ plaques; [1]) | displacement of [3H]PIB (words, discussion) (Aβ plaques) | also measured
1 | 5-(3-methoxy-4-propyloxycinnamate)-3-(2-(S)-pyrrolidinylmethoxy)pyridine [GKS-007] | some inhibitory effect |  |  | displacement of [3H]cytisine (α4β2* nAChRs): Displacement of significant amounts; GM/WM ratio of [3H]PIB binding (Aβ plaques; 1 μM drug, control GM/WM ~2): no significant GM/WM ratio reduction
2 | COc1cc(/C=C/C(=O)CC(=O)/C=C/c2ccc(O)c(OC)c2)ccc1O [CUR, curcumin] |  | 1.5 | significant displacement effect | reduction in GM/WM [3H]PIB binding (Aβ plaques; 10 μM drug): 50%
3 | 5-(3′-Ethyl 3-methoxy-4-propyloxycinnamate)-3-(2-(S)-pyrrolidinylmethoxy)pyridine [GKS-006] |  |  |  | displacement of [3H]cytisine (α4β2* nAChRs): Displacement of significant amounts
4 | FEX-(3-methoxy-4-(1′-aminobutyryloxy)cinnamic acid [KD-003] |  | 2.4 |  | [3H]PIB levels in GM and WM (Aβ plaques; 10 μM drug): higher levels of [^3H]PIB
5 | CNc1ccc(N=Nc2ccc(N(C)C)cc2)cc1 [TAZA, 4-methylamino-4'-N,N-dimethylaminoazobenzene] | significant displacement of [^3H]PIB |  | greater than observed by CUR | 
6 | COc1cc(/C=C/C(=O)O)ccc1O [FA, ferulic acid] | did not significantly affect the binding of [^3H]PIB | 2 | little displacement | GM/WM ratio of [3H]PIB binding (Aβ plaques; 1 μM drug, control GM/WM ~2): ~ 2; [3H]PIB levels in GM and WM (Aβ plaques; 10 μM drug): higher levels of [^3H]PIB
7 | solanezumab: Anti-amyloid β monoclonal antibody |  |  |  | clinical outcome (amyloid β; mild to moderate AD): Did not improve clinical outcomes. Trials continue in early stage of disease; Aβ plaque load (measured by PET imaging) before and after antibody treatment (amyloid β): did not change significantly

Source: article PMC6013267 (Medicinal chemistry research : an international journal for …, 2018)
